Measurements: US20240315246A1, “METHOD OF USING SIMAZINE FOR CONTROLLING ANNUAL BLUEGRASS IN COOL SEASON-TURFGRASSES” (priority 2023, published 2024)

Columns and labels:
ryegrass [1] = tested on: ryegrass
Description: For example, when converting from overseeded ryegrass turf to perennial bermudagrass in the spring season, sublethal doses of Sapphire herbicide (or other ryegrass-removal herbicides) are applied to cause the ryegrass to slowly fade away. […] In other aspects, a method of enhancing color and quality of a turf including the cool-season turfgrass species comprises co-administering Simazine with Penoxsulam or other ryegrass-removal herbicides to the turf comprising the cool-season turfgrass species. In such implementations, a sub-lethal dosage application of Simazine in relation to the desirable cool-season turfgrass species is co-administered with Penoxsulam or other ryegrass-removal herbicides.

[2] = tested on: cool-season turfgrass species; assay: Margin of safety on desired cool-season turfgrass species; conditions: in vivo
[3] = tested on: annual bluegrass (Poa annua); assay: Field trial: control of annual bluegrass in ryegrass turf; assay type: in vivo
Method: Unless noted otherwise, the data and results shown herein are from trials performed in Phoenix, AZ and would be representative of application of the methods described herein in a hot climate. […] The tests were conducted according to standards required by the U.S. Environmental Protection Agency for evaluating herbicides.
FIG. 1A depicts a ryegrass/annual bluegrass turf test area that was subjected to four treatments. Initial treatments were made in December. Treatment area #1 received a low application rate (0.25 lb AI/A) of Simazine followed by a second low rate application one month later. Treatment area #2 received two medium rate (0.5 lb AI/A) applications on the same schedule as treatment area #1. Treatment area #3 received a single medium rate application. Treatment area #4 received no Simazine applications. The test area was evaluated 90 days after the first application as shown in FIG. 1A and the quantification data is presented in FIG. 1B.
FIG. 2B represents a single application at 0.75 lb AI/A using the 90DF formulation. […] FIG. 3A compares single application of application rates of 0.25 lb AI/A, 0.5 lb AI/A, 0.75 lb AI/A, and 1.0 lb AI/A at 86 days after treatment. FIG. 3B quantifies the percentage of annual bluegrass coverage on the test turf at 79 days after treatment.

Poa annua = assay: Field trial: control of Poa annua in turf comprising cool-season turfgrasses, multiple low-rate applications; assay type: in vivo; conditions: multiple applications at rates as low as 0.05 lbs AI/A; no photo documentation
Method: (§1) Unless noted otherwise, the data and results shown herein are from trials performed in Phoenix, AZ and would be representative of application of the methods described herein in a hot climate. However, Simazine is effective in management of annual bluegrass infestation in a turf comprising cool-season turfgrass species in cool, high-altitude climates as well as in hot climates (see FIG. 10). The tests were conducted according to standards required by the U.S. Environmental Protection Agency for evaluating herbicides.
However, multiple applications of lower rates may provide greater safety to the ryegrass than a higher rate single application even though both may effectively control the annual bluegrass (FIGS. 4A-6B). Multiple applications of Simazine at lower rates reduce the risk of overdosing the desirable cool-season turfgrass due to application overlaps, which occur often during turf treatments.

[4] = tested on: annual bluegrass (Poa annua); assay: Field trial: control of annual bluegrass in bentgrass turf; assay type: in vivo
Description: Bentgrass turfgrass species are more sensitive to Simazine application than ryegrass. […] While there was still a large presence of annual bluegrass at 13 days after treatment, the patch of annual bluegrass is visibly ill (FIG. 7A).

[5] = tested on: annual bluegrass (Poa annua); assay: Suppression of annual bluegrass flowers and seedheads in ryegrass turf; assay type: in vivo
Description: The test turfs shown in FIGS. 9A and 9B are ryegrass turfs infested with Poa annua that received two applications of Simazine at a rate of 0.25 lb AI/A per application.
However, applying a sub-lethal dosage of Simazine in relation to annual bluegrass still improves the quality of the turf comprising cool-season turfgrasses. Using applications that are sub-lethal to annual bluegrass (at least in the near term), simazine treatment suppresses the production of annual bluegrass flowers and seedheads rendering the turf more desirable.
The #1 plot in FIG. 8A was treated with Simazine (0.25 lb AI/A). […] The other areas were untreated and the annual bluegrass there produced prolific flowers and seedheads. FIGS. 9A and 9B show multiple applications made to ryegrass turf infested with Poa annua.

[6] = tested on: annual bluegrass (Poa annua); assay: Co-administration with ryegrass-weakening herbicides A and B on ryegrass turf infested with Poa annua; assay type: in vivo; conditions: Simazine mixed with herbicide A or B; 60 days after treatment
Description: Herbicides A and B were applied at low dosages to weaken the existing ryegrass turf which was infested with Poa annua. Poa annua is not sensitive to either A or B. As shown in the untreated section, Poa annua would otherwise proliferate during the herbicidal treatment at 60 days after treatment, but co-administration with Simazine prevents Poa annua proliferation during the herbicidal treatment.
Because annual bluegrass is not sensitive to certain herbicides used for weakening existing ryegrass, treatment with such herbicides may not be beneficial in removing the turf as the annual bluegrass would proliferate in the area. However, mixing Simazine with herbicides improves the results of the herbicidal treatments in turf removal. […] Annual bluegrass is not sensitive to either herbicide.

ryegrass [7] = assay: Safety to ryegrass seeded after treatment of bermudagrass turf; assay type: in vivo; conditions: applied four days prior to planting ryegrass; 43 days after seeding
Description: Simazine may also be applied during the transition of a turf from warm-season turfgrass species to cool-season turfgrass species. Simazine is not injurious to desired cool-season turfgrasses when applied prior to planting seed. FIG. 11A show soon-to-be-dormant bermudagrass turf treated with simazine four days prior to planting ryegrass into the turf.

[8] = tested on: seashore Paspalum (Paspalum vaginatum); assay: Selective control of seashore Paspalum in bermudagrass turf; assay type: in vivo; conditions: single application 0.5 lb AI/A
Description: (§2) Bermudagrass and seashore Paspalum (Paspalum vaginatum) are both warm-season turfgrasses. However, when one species is desired, often the other species is found to contaminate the desired species. When seashore Paspalum contaminates bermudagrass, the result is undesirable. It was discovered that Simazine may be used to selectively remove the seashore Paspalum because bermudagrass is much more tolerant of Simazine than is seashore Paspalum.

bermudagrass = assay: Tolerance of bermudagrass turf; assay type: in vivo; conditions: single application 0.5 lb AI/A
Description: as §2

annual bluegrass = assay: Test turf in a cool high-altitude climate; assay type: in vivo, Poa annua
Method: FIG. 10 is a photograph of a test turf in a cool high-altitude climate.
as §1

[9] = ryegrass turf, two applications of 0.25 lb AI/A (FIGS. 9A, 9B)

Structure (SMILES): COc1cnc(OC)n2nc(NS(=O)(=O)c3c(OCC(F)F)cccc3C(F)(F)F)nc12 [Sapphire, 2-(2,2-difluoroethoxy)-N-(5,8-dimethoxy-[1,2,4]triazolo[1,5-c]pyrimidin-2-yl)-6-(trifluoromethyl)benzenesulfonamide]
- colour and quality of ryegrass during conversion to bermudagrass (ryegrass [1]; sublethal doses of ryegrass-removal herbicide alone): degrades the color and quality of the ryegrass

Structure (SMILES): CCNc1nc(Cl)nc(NC(C)C)n1 [atrazine]
- margin of safety on desired cool-season turfgrass species, compared with Simazine [2]: lesser margin of safety

Structure (SMILES): CCNc1nc(Cl)nc(NCC)n1 [Simazine, 6-chloro-2-N,4-N-diethyl-1,3,5-triazine-2,4-diamine]
- selective control of annual bluegrass ([3]; another site, single application 1.0 lb AI/A, 4 L formulation): selective control of annual bluegrass
- annual bluegrass coverage on the test turf ([3]; single application 0.25 lb AI/A, 79 days after treatment, untreated over 80%): 50%
- visual presence of annual bluegrass within the treated turf ([3]; single application 1.0 lb AI/A, 79 days after treatment): effectively removed visual presence of any annual bluegrass
- control of Poa annua (Poa annua): successfully controlled Poa annua
- condition of annual bluegrass patch ([4]; 0.5 lb AI/A, 13 days after treatment): visibly ill
- coverage of the test area with annual bluegrass ([4]; 0.5 lb AI/A, 38 days after treatment): significantly reduced
- control of annual bluegrass infestation ([4]; application at 0.5 lb AI/A): effectively controlled annual bluegrass infestation
- flowering and seedhead production in surviving annual bluegrass ([5]; plot #1 FIG. 8A, 0.25 lb AI/A): suppressed
- kill of annual bluegrass ([5]; plot #1 FIG. 8A, 0.25 lb AI/A): only a portion of the annual bluegrass was killed
- formation of flowers and seedheads [5, 9]: greatly suppressed
- kill of Poa annua [5, 9]: did not kill the Poa annua
- annual bluegrass proliferation during herbicidal treatment [6]: without allowing annual bluegrass to proliferate
- colour of treated ryegrass versus untreated (ryegrass [1]; single application, 1.0 and 0.75 lb AI/A (FIGS. 2A, 2B)): deeper green color
- colour and quality of ryegrass turf during conversion to bermudagrass (ryegrass [1]; sub-lethal Simazine about 0.25 AI/A included with Sapphire treatment): enhances the color and quality of the ryegrass turf
- effect on young ryegrass (ryegrass [7]): did not affect the young ryegrass
- control of seashore Paspalum [8]: eradicate seashore Paspalum
- damage to bermudagrass (bermudagrass): not damaging bermudagrass
- turf colour compared to untreated turf (annual bluegrass): darker green color
- control of annual bluegrass infestation (annual bluegrass; effective dose specific to the climate): control of annual bluegrass infestation
